From patent US5218126A, “Halogen substituted mitomycin derivatives” (Kyowa Hakko Kogyo Co., Ltd., priority 1990, dated 1993)

Key:
HeLa S3 cells = assay: Growth Inhibition Test on HeLa S3 Cells; format: cell-based; conditions: Homo sapiens, 1 hour exposure, then 72 hours incubation at 37° C., Neutral Red staining, read-out: IC50 (concentration which inhibits cell growth by 50%)
Experimental: Growth Inhibition Test on HeLa S3 Cells
HeLa S3 cells were suspended in an MEM medium containing 10% fetal calf serum and 2 mM glutamine at a concentration of 3×10^4 cells/ml, and 0.1 ml of the cell suspension was put into each well of a 96-well microtiter plate.
After culturing at 37° C. overnight in a carbon dioxide gas incubator, 0.05 ml of a test sample appropriately diluted with the medium was added to each well. The cells were further cultured for one hour in the carbon dioxide gas incubator and the culture supernatant was removed. The residue was washed once with a phosphate buffer saline [PBS(-)] and 0.1 ml of a fresh medium was added to each well, and the cells were further incubated at 37° C. for 72 hours in the carbon dioxide gas incubator. After removal of the supernatant, 0.1 ml of culture medium containing 0.02% Neutral Red was added to each well, and the cells were further incubated at 37° C. for one hour in the carbon dioxide gas incubator to stain the cells. After removal of the culture supernatant, each well was washed once with a physiological saline, and the dye was extracted with 0.001N HCl/30% methanol. Absorbance of the extract at 550 nm was measured with a microplate reader. The cell growth inhibition percentage was calculated according to the following formula from the absorbance of the extract of the cells treated with the test compound in various concentrations and that of intact cells. [formula]
From the cell growth inhibition percentage thus obtained, the concentration of the test compound which inhibits cell growth by 50% (IC50) was determined.

Sarcoma 180 solid tumor = assay: Anti-tumor Activity to Sarcoma 180 Solid Tumor; format: in vivo; conditions: Mus musculus, iv, 168 h; male ddY mice, s.c. Sarcoma 180, single i.v. injection 24 hours after implantation, tumor volume at 7 days; read-out: ED50 (dose showing T/C=0.5)
Experimental: Anti-tumor Activity to Sarcoma 180 Solid Tumor
5×10^6 Sarcoma 180 cells were abdominally implanted into a ddY mouse and the cells were collected from the ascites of the mouse 7 days after the implantation. The cells were washed once with a sterilized physiological saline solution and then suspended in a sterilized physiological saline solution to prepare a cell suspension of 5×10^7 cells/ml. 0.1 ml of the cell suspension was subcutaneously implanted into the right axiallary space of male ddY mice weighting 20±2 g.
A test compound was dissolved in a physiological saline solution or a Tween 80-containing physiological saline solution, and 0.1 to 0.2 ml of the solution was intravenously injected to five mice as one group 24 hours after the implatation of the tumor cells.
The anti-tumor activity of the test compound was determined by measuring the major diameter (a) and the minor diameter (b) of the tumor 7 days after the implantation of tumor cells, and the value of (a×b^2 /2), which corresponds to the volume of the tumor, was calculated. The intended anti-tumor activity is represented by a ratio of T/C, in which C indicates the tumor volume of mice of the control group to which no test compound was administered and T indicates the tumor volume of mice of the test group to which the test compound was administered. T/C at each dose given was plotted in a graph in which T/C is shown by an ordinary scale on the vertical axis and a dose is shown by a logarithmic scale on the horizontal axis. The relation between the dose and T/C was determined to be a straight line by the least-squares method. From the regression formula of the straight line thus obtained, the dose of showing T/C=0.5 is calculated to give ED50.

Acute Toxicity = conditions: mouse, in vivo, iv; ddY mice, single i.v. injection, 14 days observation, Behrens Kaerber's method
Experimental: A test compound was intravenously injected once to five ddY mice as one group. […] LD50 was calculated from the death rate of each group according to the Behrens Kaerber's method.

SMILES	IC50 (HeLa S3 cells)	ED50 (Sarcoma 180 solid tumor)	LD50 at 336 h (Acute Toxicity)
COC1=CC(=O)C2=C(C1=O)[C@@H](COC(N)=O)[C@@]1(OC)[C@H]3N[C@H]3CN21 [Compound 1, 6-demethylmitomycin A]	210 nM	1.6 mg/kg	2.8 mg/kg
COC1=CC(=O)C2=C(C1=O)[C@H](COC(N)=O)[C@@]1(O)[C@@H]3[C@H](CN21)N3C (stereo partly shown) [Compound 2, 6-demethylmitomycin B]	> 10000 nM	11 mg/kg	> 20 mg/kg
CO[C@@]12[C@H](COC(N)=O)C3=C(C(=O)C=C(N)C3=O)N1C[C@@H]1N[C@@H]12 [Compound 3, 6-demethylmitomycin C]	2200 nM	2.6 mg/kg	9.7 mg/kg
CN1[C@H]2[C@@H]1CN1C3=C(C(=O)C(N)=CC3=O)[C@H](COC(N)=O)[C@@]21O (stereo partly shown) [Compound 4, 6-demethylmitomycin D]	> 31000 nM	33 mg/kg	> 100 mg/kg
COC1=CC(=O)C2=C(C1=O)[C@@H](COC(N)=O)[C@@]1(OC)[C@@H]3[C@H](CN21)N3C (stereo partly shown) [Compound 5, 6-demethylmitomycin F]	130 nM	7.1 mg/kg	26 mg/kg
CO[C@@]12[C@H](COC(N)=O)C3=C(C(=O)C=C(N)C3=O)N1C[C@H]1[C@@H]2N1C (stereo partly shown) [Compound 6, 6-demethylporfiromycin]	7300 nM	8.4 mg/kg	18 mg/kg
CO[C@@]12[C@H](COC(N)=O)C3=C(C(=O)C(Cl)=C(N)C3=O)N1C[C@@H]1N[C@@H]12 [Compound 7, 6-chloro-6-demethylmitomycin C]	550 nM	–	–
CO[C@@]12[C@H](COC(N)=O)C3=C(C(=O)C(Br)=C(N)C3=O)N1C[C@@H]1N[C@@H]12 [Compound 8, 6-bromo-6-demethylmitomycin C]	720 nM	1.6 mg/kg	3.2 mg/kg
